Experimental data published in patent US20240294499A1, “TARGETED PROTEIN DEGRADATION USING BIFUNCTIONAL COMPOUNDS THAT BIND UBIQUITIN LIGASE AND TARGET MCL-1 PROTEIN” (Captor Therapeutics S.A., priority 2021, published 2024).

Tests used:
[1] = test system: MV-4-11 cells; assay: Cell viability assay (CellTiter-Glo), MV-4-11; format: cell-based; conditions: Homo sapiens, MV4-11, 24 hours incubation, 1% FBS, read-out: Average pIC50 by molecule MV-4-11 (converted)
From the text: (§1) The effect of various compounds of the invention on the viability of OPM-2, MV-4-11 and ARH-77 cell lines was investigated, using the CTG protocol described below.
(§2) OPM-2 and MV-4-11 cell lines are derived from multiple myeloma and acute myeloid leukaemia, respectively. Both cell lines are described in the literature as MCL-1 dependent lines, as opposed to lymphoblast-like ARH-77 cell line, which is described as independent of MCL-1 (Tron A E et al. Nat Commun. 2018; 9: 5341; Caenepeel S et al. Cancer Discov. 2018 December; 8(12):1582-1597).
(§3) Cells (OPM-2, MV-4-11 or ARH-77) were seeded on […] in a growth medium with FBS reduced to 1%. Next, compound stocks were pre-diluted in DMSO and added directly to the cells growth medium (final DMSO concentration: 0.5%). Compound concentrations used in this assay: 1/3 dilutions starting at 30 uM (9 to 12 points).
(§4) After 24 hours of incubation, cell viability was evaluated using CellTiter-Glo Luminescent Cell Viability Assay (Promega, cat #G7572). Luminescence signal was measured using a CLARIOstar Plus Multi-Mode Microplate Reader (574-590 nm).
(§5) Results were normalized to DMSO control.

[2] = test system: ARH-77 cells; assay: Cell viability assay (CellTiter-Glo), ARH-77; format: cell-based; conditions: Homo sapiens, ARH-77, 24 hours incubation, 1% FBS, read-out: Average pIC50 by molecule ARH-77 (converted)
From the text: as §1, §2, §3, §4, §5

[3] = target: [MCL-1]-[compound of formula (I)]-[CRBN/DDB1] complex (Homo sapiens, UniProt Q07820+Q96SW2); assay: AlphaLISA dose response ternary complex formation assay; format: binding; conditions: read-out: AlphaLISA dose response Average pEC50 by molecule (converted)
Experimental: The effect of the bifunctional compounds of the invention on the formation of a ternary complex composed of [MCL-1]-[compound of formula (I)]-[CRBN/DDB1] was investigated with two methods: AlphaLISA dose response assay or HTRF ternary complex assay.
Two types of protein solution were prepared: • 40 nM biotinylated hMCL-1, 40 μg/ml AlphaScreen Streptavidin-coated Donor Beads in PBS buffer with 0.1% Tween-20 and 1 mM DTT, • 200 nM 6×His-CRBN/Strep-DDB1, 40 μg/ml AlphaLISA Anti-6×His Acceptor beads in PBS buffer with 0.1% Tween-20 and 1 mM DTT.
The prepared solutions were incubated at room temperature for 45 min and then the solution containing the donor beads was mixed with the solution containing the acceptor beads.
The tested compounds were dispensed onto a white 384-well AlphaPlate 384 SW. DMSO was backfilled to all wells, resulting in a final DMSO content of 2%. Wells containing only DMSO served as background. Next, 10 μl of solution with donor and acceptor beads was added to the wells.
The plate was sealed with transparent film and shaken using a VibroTurbulator for 60 see at room temperature, level 3. The plate was then spun down shortly (10 s, 1000 rcf, room temperature) and incubated at 25° C. for 30 min.
The read-out was performed with PerkinElmer Enspire Multimode Plate Reader (method for AlphaLISA 384-well low volume, Filterset: λexc=680 nm, λem=615 nm).
The results were analyzed as follows: • 1) an average of luminescence for background signal was calculated and used as a negative control; • 2) average of the maximum measured luminescence for 233 was calculated and used as an internal positive control; • 3) raw luminescence values were normalized against positive and negative controls; • 4) concentration points above the hook point were excluded; • 5) EC50 and pEC50 values were determined.

Chain of [MCL-1]-[compound of formula (I)]-[CRBN/DDB1] complex (Q07820 whole entry): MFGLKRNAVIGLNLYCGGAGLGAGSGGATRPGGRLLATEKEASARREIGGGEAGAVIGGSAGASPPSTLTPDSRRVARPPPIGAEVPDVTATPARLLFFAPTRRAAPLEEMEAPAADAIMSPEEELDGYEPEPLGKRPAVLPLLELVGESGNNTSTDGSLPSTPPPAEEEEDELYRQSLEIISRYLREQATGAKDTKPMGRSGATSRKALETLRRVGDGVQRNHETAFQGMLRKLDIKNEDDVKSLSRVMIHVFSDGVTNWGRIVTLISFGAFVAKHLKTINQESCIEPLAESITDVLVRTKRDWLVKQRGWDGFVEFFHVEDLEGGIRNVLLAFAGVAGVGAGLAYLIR
Chain of [MCL-1]-[compound of formula (I)]-[CRBN/DDB1] complex (Q96SW2 whole entry): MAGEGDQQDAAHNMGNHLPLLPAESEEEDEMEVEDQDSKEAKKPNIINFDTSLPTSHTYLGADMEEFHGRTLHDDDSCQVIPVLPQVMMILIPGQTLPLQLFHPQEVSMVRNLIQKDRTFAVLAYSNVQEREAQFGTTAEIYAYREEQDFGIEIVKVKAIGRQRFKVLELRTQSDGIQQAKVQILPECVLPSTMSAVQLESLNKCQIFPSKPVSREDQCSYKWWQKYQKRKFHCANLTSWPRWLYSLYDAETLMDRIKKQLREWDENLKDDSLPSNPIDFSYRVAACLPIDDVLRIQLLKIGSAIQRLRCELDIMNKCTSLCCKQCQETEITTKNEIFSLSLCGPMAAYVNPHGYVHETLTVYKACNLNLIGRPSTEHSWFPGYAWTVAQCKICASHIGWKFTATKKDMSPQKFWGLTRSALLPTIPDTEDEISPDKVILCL
Chain of [MCL-1]-[compound of formula (I)]-[CRBN/DDB1] complex (Q16531 whole entry partner): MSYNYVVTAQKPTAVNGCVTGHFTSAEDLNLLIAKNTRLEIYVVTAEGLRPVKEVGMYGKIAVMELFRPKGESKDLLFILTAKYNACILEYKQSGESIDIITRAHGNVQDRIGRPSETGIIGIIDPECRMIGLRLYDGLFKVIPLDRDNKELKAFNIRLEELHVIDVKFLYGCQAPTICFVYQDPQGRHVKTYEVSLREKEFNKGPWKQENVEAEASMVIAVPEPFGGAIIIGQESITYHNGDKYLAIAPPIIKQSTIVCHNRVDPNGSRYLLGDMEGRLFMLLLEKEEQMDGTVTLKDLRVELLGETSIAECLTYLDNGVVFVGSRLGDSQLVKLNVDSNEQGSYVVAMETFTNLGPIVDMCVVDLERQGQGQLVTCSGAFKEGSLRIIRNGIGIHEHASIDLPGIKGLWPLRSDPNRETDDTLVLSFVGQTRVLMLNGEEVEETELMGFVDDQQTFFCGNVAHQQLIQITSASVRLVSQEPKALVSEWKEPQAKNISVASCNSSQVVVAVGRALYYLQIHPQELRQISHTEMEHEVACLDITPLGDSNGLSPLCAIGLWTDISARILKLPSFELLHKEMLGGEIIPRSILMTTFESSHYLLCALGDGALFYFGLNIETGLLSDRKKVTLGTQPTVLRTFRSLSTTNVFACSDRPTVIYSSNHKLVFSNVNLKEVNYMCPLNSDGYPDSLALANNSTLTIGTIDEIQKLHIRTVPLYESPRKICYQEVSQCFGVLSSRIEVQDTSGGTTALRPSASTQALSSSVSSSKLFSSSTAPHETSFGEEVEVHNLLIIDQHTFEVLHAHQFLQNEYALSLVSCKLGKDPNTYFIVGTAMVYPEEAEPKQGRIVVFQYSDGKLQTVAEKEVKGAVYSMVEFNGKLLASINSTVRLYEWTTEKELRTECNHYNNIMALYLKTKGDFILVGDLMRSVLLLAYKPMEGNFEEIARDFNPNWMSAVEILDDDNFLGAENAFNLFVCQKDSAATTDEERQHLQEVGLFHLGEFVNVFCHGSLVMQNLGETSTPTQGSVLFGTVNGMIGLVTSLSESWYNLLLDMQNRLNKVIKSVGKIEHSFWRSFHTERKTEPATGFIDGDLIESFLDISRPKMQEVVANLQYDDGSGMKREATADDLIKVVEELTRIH

Cc1nn(C)c(C)c1-c1c(Cl)ccc2c(CCCOc3cccc4ccccc34)c(C(=O)O)n(CCN3CCN(C(=O)COc4cccc5c4CN(C4CCC(=O)NC4=O)C5=O)C4CC43)c12 (stereo not shown) [Compound 222, 6-chloro-1-{2-[5-(2-{[2-(2,6-dioxopiperidin-3-yl)-1-oxo-2,3-dihydro-1H-isoindol-4-yl]oxy}acetyl)-2,5-diazabicyclo[4.1.0]heptan-2-yl]ethyl}-3-[3-(naphthalen-1-yloxy)propyl]-7-(1,3,5-trimethyl-1H-pyrazol-4-yl)-1H-indole-2-carboxylic acid]
IC50 [1]: ≤ 0.316 µM | IC50 [2]: > 10 µM | EC50 [3]: < 0.1 µM

Cc1nn(C)c(C)c1-c1c(Cl)ccc2c(CCCOc3cccc4cc(F)ccc34)c(C(=O)O)n(CCN3CCC(CN4CCN(c5cc6c(cc5F)C(=O)N(C5CCC(=O)NC5=O)C6=O)CC4)CC3)c12 (stereo not shown) [Compound 331, 6-Chloro-1-(2-(4-((4-(2-(2,6-dioxopiperidin-3-yl)-6-fluoro-1,3-dioxoisoindolin-5-yl)piperazin-1-yl)methyl)piperidin-1-yl)ethyl)-3-(3-((6-fluoronaphthalen-1-yl)oxy)propyl)-7-(1,3,5-trimethyl-1H-pyrazol-4-yl)-1H-indole-2-carboxylic acid]
IC50 [1]: ≤ 0.316 µM | IC50 [2]: > 10 µM | EC50 [3]: < 0.1 µM

Cc1nn(C)c(C)c1-c1c(Cl)ccc2c(CCCOc3cccc4cc(F)ccc34)c(C(=O)O)n(CCN3CCN(C(=O)[C@H](C)Oc4cccc5c4C(=O)N([C@@H]4CCC(=O)NC4=O)C5=O)CC3)c12 (single isomer, unassigned) [Compound 320]
IC50 [1]: ≤ 0.1 µM | IC50 [2]: > 10 µM

Cc1nc2cccc(NCC(=O)N3CCN(CCn4c(C(=O)O)c(CCCOc5cccc6cc(F)ccc56)c5ccc(Cl)c(-c6c(C)nn(C)c6C)c54)CC3)c2cc1C1CCC(=O)NC1=O (stereo not shown) [Compound 287, 6-Chloro-1-{2-[4-(2-{[3-(2,6-dioxopiperidin-3-yl)-2-methylquinolin-5-yl]amino}acetyl)piperazin-1-yl]ethyl}-3-{3-[(6-fluoronaphthalen-1-yl)oxy]propyl}-7-(1,3,5-trimethyl-1H-pyrazol-4-yl)-1H-indole-2-carboxylic acid]
IC50 [1]: ≤ 1 µM | IC50 [2]: > 3.16 µM

Cc1cc(OCCCc2c(C(=O)O)n(CCN3CCN(C(=O)CCOCCOCCOCCOCCOCCOCCNc4cccc5c4C(=O)N(C4CCC(=O)NC4=O)C5=O)CC3)c3c(-c4c(C)nn(C)c4C)c(Cl)ccc23)cc(C)c1Cl (stereo not shown) [Compound 203, 6-chloro-3-[3-(4-chloro-3,5-dimethylphenoxy)propyl]-1-{2-(4-(1-{(2-(2,6-dioxopiperidin-3-yl)-1,3-dioxo-2,3-dihydro-1H-isoindol-4-yl]amino}-3,6,9,12,15,18-hexaoxahenicosanoyl)piperazin-1-yl]ethyl}-7-(1,3,5-trimethyl-1H-pyrazol-4-yl)-1H-indole-2-carboxylic acid]
IC50 [1]: ≤ 1 µM | EC50 [3]: < 0.1 µM

Cc1nn(C)c(C)c1-c1c(Cl)ccc2c(CCCOc3cccc4cc(F)ccc34)c(C(=O)O)n(CCN3CCN(C(=O)Cn4c(C)nc5c(C(=O)NC6CCC(=O)NC6=O)cc(Br)cc54)CC3)c12 (stereo not shown) [Compound 273, 1-{2-[4-(2-{6-Bromo-4-[(2,6-dioxopiperidin-3-yl)carbamoyl]-2-methyl-1H-1,3-benzodiazol-1-yl}acetyl)piperazin-1-yl]ethyl}-6-chloro-3-{3-[(6-fluoronaphthalen-1-yl)oxy]propyl}-7-(1,3,5-trimethyl-1H-pyrazol-4-yl)-1H-indole-2-carboxylic acid]
IC50 [1]: ≤ 0.316 µM | IC50 [2]: > 10 µM | EC50 [3]: < 0.01 µM

Cc1nn(C)c(C)c1-c1c(Cl)ccc2c(CCCOc3cccc4cc(F)ccc34)c(C(=O)O)n(CCN3CCN(C(=O)COc4c(Cl)ccc5c4CN(C4CCC(=O)NC4=O)C5=O)CC3)c12 (stereo not shown) [Compound 345, 6-Chloro-1-{2-[4-(2-{[5-chloro-2-(2,6-dioxopiperidin-3-yl)-1-oxo-2,3-dihydro-1H-isoindol-4-yl]oxy}acetyl)piperazin-1-yl]ethyl}-3-{3-[(6-fluoronaphthalen-1-yl)oxy]propyl}-7-(1,3,5-trimethyl-1H-pyrazol-4-yl)-1H-indole-2-carboxylic acid]
IC50 [1]: ≤ 0.1 µM | IC50 [2]: > 10 µM | EC50 [3]: < 0.1 µM

Cc1nn(C)c(C)c1-c1c(Cl)ccc2c(CCCOc3cccc4cc(F)ccc34)c(C(=O)O)n(CCN3CCN(C(=O)[C@@H](C)Oc4cccc5c4C(=O)N([C@H]4CCC(=O)NC4=O)C5=O)CC3)c12 (single isomer, unassigned) [Compound 317]
IC50 [1]: ≤ 0.0316 µM | IC50 [2]: > 3.16 µM | EC50 [3]: < 0.1 µM

COc1cc(OCCCc2c(C(=O)O)n(CCN3CCN(C(=O)COc4cccc5c4C(=O)N(C4CCC(=O)NC4=O)C5=O)CC3)c3c(-c4c(C)nn(C)c4C)c(Cl)ccc23)c2ccccc2c1 (stereo not shown) [Compound 218, 6-chloro-1-(2-(4-(2-((2-(2,6-dioxopiperidin-3-yl)-1,3-dioxoisoindolin-4-yl)oxy)acetyl)piperazin-1-yl)ethyl)-3-(3-((3-methoxynaphthalen-1-yl)oxy)propyl)-7-(1,3,5-trimethyl-1H-pyrazol-4-yl)-1H-indole-2-carboxylic acid]
IC50 [1]: ≤ 1 µM | IC50 [2]: > 10 µM | EC50 [3]: < 0.1 µM

Cc1nn(C)c(C)c1-c1c(Cl)ccc2c(CCCOc3cccc4cc(F)ccc34)c(C(=O)O)n(CCN3CCC(CN4CCN(c5cccc6c5C(=O)N(C5CCC(=O)NC5=O)C6=O)CC4)CC3)c12 (stereo not shown) [Compound 332, 6-Chloro-1-(2-(4-((4-(2-(2,6-dioxopiperidin-3-yl)-1,3-dioxoisoindolin-4-yl)piperazin-1-yl)methyl)piperidin-1-yl)ethyl)-3-(3-((6-fluoronaphthalen-1-yl)oxy)propyl)-7-(1,3,5-trimethyl-1H-pyrazol-4-yl)-1H-indole-2-carboxylic acid]
IC50 [1]: ≤ 1 µM | IC50 [2]: > 31.6 µM | EC50 [3]: < 0.1 µM

Cc1nn(C)c(C)c1-c1c(Cl)ccc2c(CCCOc3cccc4cc(F)ccc34)c(C(=O)O)n(CCN3CCN(C(=O)COc4cccc5c4CN([C@@H]4CCC(=O)NC4=O)C5=O)CC3)c12 [Compound 297, (R)-6-Chloro-1-(2-(4-(2-((2-(2,6-dioxopiperidin-3-yl)-1-oxoisoindolin-4-yl)oxy)acetyl)piperazin-1-yl)ethyl)-3-(3-((6-fluoronaphthalen-1-yl)oxy)propyl)-7-(1,3,5-trimethyl-1H-pyrazol-4-yl)-1H-indole-2-carboxylic acid]
IC50 [1]: ≤ 0.1 µM | IC50 [2]: > 10 µM

Cc1nn(C)c(C)c1-c1c(Cl)ccc2c(CCCOc3cccc4ccccc34)c(C(=O)O)n(CCN3CCN(C(=O)COc4cc(C(F)(F)F)nc5c(C(=O)NC6CCC(=O)NC6=O)scc45)CC3)c12 (stereo not shown) [Compound 267, 6-chloro-1-(2-{4-[2-({7-[(2,6-dioxopiperidin-3-yl)carbamoyl]-2-(trifluoromethyl)thieno[3,4-b]pyridin-4-yl}oxy)acetyl]piperazin-1-yl}ethyl)-3-[3-(naphthalen-1-yloxy)propyl]-7-(1,3,5-trimethyl-1H-pyrazol-4-yl)-1H-indole-2-carboxylic acid]
EC50 [3]: < 0.1 µM

Cc1nn(C)c(C)c1-c1c(Cl)ccc2c(CCCOc3cccc4c3CCCC4)c(C(=O)O)n(CCN3CCN(C(=O)COc4cccc5c4CN(C4CCC(=O)NC4=O)C5=O)CC3)c12 (stereo not shown) [Compound 219, 6-chloro-1-(2-(4-(2-((2-(2,6-dioxopiperidin-3-yl)-1-oxoisoindolin-4-yl)oxy)acetyl)piperazin-1-yl)ethyl)-3-(3-((5,6,7,8-tetrahydronaphthalen-1-yl)oxy)propyl)-7-(1,3,5-trimethyl-1H-pyrazol-4-yl)-1H-indole-2-carboxylic acid]
EC50 [3]: < 0.01 µM
